Experimental data as given in US20230122249A1, “1H-PYRAZOLO[4,3-d]PYRIMIDINE COMPOUNDS AS TOLL-LIKE RECEPTOR 7 (TLR7) AGONISTS” (BRISTOL-MYERS SQUIBB COMPANY, priority 2020, published 2023).

Columns and labels:
[1] = test system: CD69 in human whole blood; assay: Induction of CD69 in human whole blood (hWB); type: cell-based; conditions: heparinized human whole blood, 17 h, CD69 surface staining; 100% set to 1 uM resiquimod; average where assay repeated
In short: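 hWB stimulated with compound at 1 uM final (1 mM stock), 37° C o/n (17 hrs). Surface CD69-PE staining with CD14/CD19 gating, fix/lysis, then flow cytometry read. IC50 curves with 100% set to 1 uM resiquimod.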

human TLR7 = target: T1, human TLR7 (Homo sapiens, UniProt Q9NYK1); assay: Human TLR7 agonist activity (hTLR7 reporter) assay in HEK-Blue TLR7 cells, SEAP readout; type: cell-based; conditions: 18 h treatment, average where assay repeated
T1 construct: host or cells: HEK-Blue TLR7 cells (engineered human embryonic kidney cells)
T1 sequence (Q9NYK1 27-1049): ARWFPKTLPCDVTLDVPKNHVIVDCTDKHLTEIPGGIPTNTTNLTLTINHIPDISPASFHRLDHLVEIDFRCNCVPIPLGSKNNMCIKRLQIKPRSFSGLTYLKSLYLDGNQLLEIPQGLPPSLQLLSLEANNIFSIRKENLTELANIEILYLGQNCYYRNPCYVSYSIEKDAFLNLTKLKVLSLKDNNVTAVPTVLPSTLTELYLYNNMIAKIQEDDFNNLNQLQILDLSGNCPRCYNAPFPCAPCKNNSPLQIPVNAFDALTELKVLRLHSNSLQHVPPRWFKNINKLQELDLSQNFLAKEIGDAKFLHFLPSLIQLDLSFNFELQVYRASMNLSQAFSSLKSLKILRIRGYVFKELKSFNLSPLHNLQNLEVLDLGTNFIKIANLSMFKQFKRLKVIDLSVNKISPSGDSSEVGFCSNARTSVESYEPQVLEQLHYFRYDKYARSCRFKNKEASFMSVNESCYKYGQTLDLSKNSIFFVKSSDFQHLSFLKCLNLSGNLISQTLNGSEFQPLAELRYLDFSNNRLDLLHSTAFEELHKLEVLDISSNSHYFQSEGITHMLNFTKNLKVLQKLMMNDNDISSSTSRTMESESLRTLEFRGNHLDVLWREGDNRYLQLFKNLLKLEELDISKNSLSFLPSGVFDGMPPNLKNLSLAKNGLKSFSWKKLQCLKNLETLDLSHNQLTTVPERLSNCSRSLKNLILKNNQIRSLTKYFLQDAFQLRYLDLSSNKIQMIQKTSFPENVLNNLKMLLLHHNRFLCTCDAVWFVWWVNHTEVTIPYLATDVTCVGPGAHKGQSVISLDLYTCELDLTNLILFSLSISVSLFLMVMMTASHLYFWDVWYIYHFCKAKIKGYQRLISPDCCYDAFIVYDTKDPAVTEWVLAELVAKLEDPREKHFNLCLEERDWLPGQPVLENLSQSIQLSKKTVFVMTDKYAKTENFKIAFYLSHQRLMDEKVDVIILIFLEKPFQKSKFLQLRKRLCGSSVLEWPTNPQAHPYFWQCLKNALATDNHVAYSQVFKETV
In short: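 HEK-Blue TLR7 cells (15,000/well) treated with compound for 18 h at 37 °C, 5% CO2. Secreted SEAP measured with Quanti-Blue, 30 min, OD 620 nm. EC50 taken as concentration giving half-maximal response between baseline and maximum.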

`CN1CCN(C(=O)c2ccc(Cn3ncc4nc(N)nc(NCC5CC6(CC6)C5)c43)c(OC(F)F)c2)CC1` [Compound 221] was tested, and the EC50 [1] was 50.6 nM and the EC50 (human TLR7) was 247 nM.

With `COc1cc(C(=O)N(C)CCN(C)C)ccc1Cn1ncc2nc(N)nc(NCC3CC4(CC4)C3)c21` [Compound 222] the EC50 [1] was 2.4 nM and the EC50 (human TLR7) was 16 nM.

`Nc1nc(NCC2CC3(CC3)C2)c2c(cnn2Cc2ccc(C(=O)C3C[C@H]4CNC[C@H]4N3)cc2OC(F)F)n1` (stereo partly drawn) [Compound 224] showed an EC50 [1] of 520 nM and an EC50 (human TLR7) of 1400 nM.

Work on `COc1cc(C(=O)NC2CCN(CCO)CC2)ccc1Cn1ncc2nc(N)nc(NCC3CC4(CC4)C3)c21` [Compound 225] yielded an EC50 [1] of 218 nM and an EC50 (human TLR7) of 1220 nM.

`COc1cc(C(=O)N2CCC(S(C)(=O)=O)CC2)ccc1Cn1ncc2nc(N)nc(NCC3CC4(CC4)C3)c21` [Compound 226] was tested, and the EC50 [1] was 555 nM and the EC50 (human TLR7) was 425 nM.

In the case of `COc1cc(C(=O)N2CCS(=O)(=O)CC2)ccc1Cn1ncc2nc(N)nc(NCC3CC4(CC4)C3)c21` [Compound 227], the EC50 [1] is reported as 125 nM and the EC50 (human TLR7) is reported as 507 nM.

In the case of `COc1cc(C(=O)N(CCO)CCO)ccc1Cn1ncc2nc(N)nc(NCC3CC4(CC4)C3)c21` [Compound 228], the EC50 [1] is reported as 553 nM and the EC50 (human TLR7) is reported as 894 nM.

`CCC[C@@H](CCO)Nc1nc(N)nc2cnn(Cc3ccc(C(=O)N4CC5(C4)CN(C4CCOCC4)C5)cc3OC)c12` [Compound 229] gave an EC50 [1] of 37.6 nM and an EC50 (human TLR7) of 37.9 nM.

For `COc1cc(C(=O)NC2CCN(CC(=O)N(C)C)CC2)ccc1Cn1ncc2nc(N)nc(NCC3CC4(CC4)C3)c21` [Compound 230], the EC50 [1] was 197 nM and the EC50 (human TLR7) was 276 nM.

In the case of `COc1cc(C(=O)NCCCN(C)C)ccc1Cn1ncc2nc(N)nc(NCC3CC4(CC4)C3)c21` [Compound 231], the EC50 [1] is reported as 32.4 nM and the EC50 (human TLR7) is reported as 166 nM.

`CCC[C@@H](CCO)Nc1nc(N)nc2cnn(Cc3ccc(C(=O)N4CC5(C4)CN(C(C)C)C5)cc3OC)c12` [Compound 232] was tested, and the EC50 [1] was 32.9 nM and the EC50 (human TLR7) was 37.1 nM.

`CCC[C@@H](CCO)Nc1nc(N)nc2cnn(Cc3ccc(C(=O)N4CC5(CN(CCO)C5)C4)cc3OC)c12` [Compound 233] gave an EC50 [1] of 265 nM and an EC50 (human TLR7) of 412 nM.

In the case of `COc1cc(C(=O)NCCN(C)C)ccc1Cn1ncc2nc(N)nc(NCC3CC4(CC4)C3)c21` [Compound 234], the EC50 [1] is reported as 10.2 nM and the EC50 (human TLR7) is reported as 93.2 nM.

For `COc1cc(C(=O)N2CCN(C(C)=O)CC2)ccc1Cn1ncc2nc(N)nc(NCC3CC4(CC4)C3)c21` [Compound 235], the EC50 [1] was 223 nM and the EC50 (human TLR7) was 146 nM.

`COc1cc(C(=O)N2CCN(S(C)(=O)=O)CC2)ccc1Cn1ncc2nc(N)nc(NCC3CC4(CC4)C3)c21` [Compound 236] gave an EC50 [1] of 284 nM and an EC50 (human TLR7) of 199 nM.

Compound `COc1cc(C(=O)N2CCN(CC(F)(F)F)CC2)ccc1Cn1ncc2nc(N)nc(NCC3CC4(CC4)C3)c21` [Compound 237] has an EC50 [1] of 958 nM and an EC50 (human TLR7) of 589 nM.

`COc1cc(C(=O)NC2CCN(CC(C)(C)O)CC2)ccc1Cn1ncc2nc(N)nc(NCC3CC4(CC4)C3)c21` [Compound 238] gave an EC50 [1] of 35.2 nM and an EC50 (human TLR7) of 86 nM.

`COc1cc(C(=O)N2CCN(CC(C)(C)O)CC2)ccc1Cn1ncc2nc(N)nc(NCC3CC4(CC4)C3)c21` [Compound 239] gave an EC50 [1] of 110 nM and an EC50 (human TLR7) of 39 nM.

For `COc1cc(C(=O)N2C[C@@H]3CN(S(C)(=O)=O)C[C@@H]3C2)ccc1Cn1ncc2nc(N)nc(NCC3CC4(CC4)C3)c21` [Compound 240], the EC50 [1] was 845 nM and the EC50 (human TLR7) was 291 nM.

`COc1cc(CN2CC3(C2)CN(C[C@H](C)O)C3)ccc1Cn1ncc2nc(N)nc(NCC3CC4(CC4)C3)c21` [Compound 241] gave an EC50 [1] of 14 nM and an EC50 (human TLR7) of 72.9 nM.

`Nc1nc(NCC2CC3(CC3)C2)c2c(cnn2Cc2ccc(CN3CC4(CNC4)C3)cc2OC(F)F)n1` [Compound 242] gave an EC50 [1] of 588 nM and an EC50 (human TLR7) of 829 nM.

With `Nc1nc(NCC2CC3(CC3)C2)c2c(cnn2Cc2ccc(CN3C[C@H]4CNC[C@H]4C3)cc2OC(F)F)n1` [Compound 243] the EC50 [1] was 193 nM and the EC50 (human TLR7) was 283 nM.

With `CCCCNc1nc(N)nc2c(C)nn(Cc3ccc(CN4CC5(C4)CN(C(C)=O)C5)cc3OC)c12` [Compound 244] the EC50 [1] was 31.1 nM and the EC50 (human TLR7) was 138 nM.

`CCC[C@@H](CCO)Nc1nc(N)nc2c(F)nn(Cc3ccc(CN4CC5(CNC5)C4)cc3OC)c12` [Compound 245] gave an EC50 [1] of 1.2 nM and an EC50 (human TLR7) of 40.6 nM.
